# From article doi:10.1101/2021.09.30.462449v1 (biorxiv, 2021)
# Target: PL^pro (Severe acute respiratory syndrome coronavirus 2, UniProt P0DTD1)
# Test: FRET peptide cleavage assay
# Format: biochemical
row,Compound,IC50
1,"COc1ccc2nc3cc(Cl)ccc3c(Nc3ccc(O)cc3)c2c1 [compound 2, 4-[(6-chloro-2-methoxyacridin-9-yl)amino]phenol]",> 20 µM
2,"COc1ccc2nc3cc(Cl)ccc3c(Nc3cc(CN(C)C)c(O)c(CN(C)C)c3)c2c1 [compound 3, 4-[(6-chloro-2-methoxyacridin-9-yl)amino]-2,6-bis[(dimethylamino)methyl]phenol]",3.28 ± 0.4 µM
3,"COc1ccc2nc3cc(Cl)ccc3c(Nc3ccc(O)c(CN4CCCC4)c3)c2c1 [compound 4, 4-[(6-chloro-2-methoxyacridin-9-yl)amino]-2-(pyrrolidin-1-ylmethyl)phenol]",2.56 ± 0.28 µM
4,"COc1ccc2nc3cc(Cl)ccc3c(Nc3cc(CN4CCCC4)c(O)c(CN4CCCC4)c3)c2c1 [compound 5, 4-[(6-chloro-2-methoxyacridin-9-yl)amino]-2,6-bis(pyrrolidin-1-ylmethyl)phenol]",2.44 ± 0.53 µM
5,"COc1ccc2nc3cc(Cl)ccc3c(O)c2c1 [compound 6, 6-chloro-2-methoxyacridin-9-ol]",> 20 µM
6,"COc1ccc2nc3cc(Cl)ccc3c(N3CCOCC3)c2c1 [compound 7, 6-chloro-2-methoxy-9-morpholin-4-ylacridine]",> 20 µM
7,"N#Cc1c(N2CCOCC2)ncc2cc3ccccc3nc12 [compound 9, 3-morpholin-4-ylbenzo[b]-1,6-naphthyridine-4-carbonitrile]",> 20 µM
8,"N#Cc1c(N2CCOCC2)ncc2c(=O)c3ccccc3[nH]c12 [compound 10, 3-morpholin-4-yl-10-oxo-5,10-dihydrobenzo[b]-1,6-naphthyridine-4-carbonitrile]",> 20 µM
